Measurements from ChEMBL document CHEMBL1201862, “PubChem BioAssay data set” (2004).
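Assay format: 96-well plates, 48-hour exposure. The concentration for 50% growth inhibition is given as GI50.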 Active and inactive are the calls of the source. Cut-off read from the data, not from the text of the source: active = GI50 up to about 1.1 µM and inactive = higher.

Legend:
Test in all cases: inhibition of tumour cell growth, NCI panel, 48 h
[1] = test system: NCI-H23
[2] = test system: RXF 393
[3] = test system: SK-MEL-5
[4] = test system: LXFL 529
[5] = test system: OVCAR-5
[6] = test system: SN12C
[7] = test system: KM-20L2
[8] = test system: HCT-116
[9] = test system: SF-295
[10] = test system: UACC-257
[11] = test system: OVCAR-4
[12] = test system: SW-620
[13] = test system: HCC 2998
[14] = test system: SF-539
[15] = test system: EKVX
[16] = test system: SK-MEL-2
[17] = test system: A498

Measured: GI50

CC(=O)c1c(O)ccc2c1CC(CC=O)O2 (stereo not given)
inactive: [1] 53.6 µM | [2] > 100 µM | [3] 79.8 µM | [4] 42.9 µM | [5] > 100 µM | [6] 58.9 µM | [7] > 100 µM | [8] 19.7 µM | [9] > 100 µM | [10] > 100 µM | [11] 98.6 µM | [12] 43.9 µM | [13] > 100 µM | [14] 50 µM

Cc1ccc(-c2c(N)[n+]([O-])c3ccccc3[n+]2[O-])cc1
inactive: [15] 23.4 µM | [1] 5 µM | [3] 11.4 µM | [4] 5.81 µM | [5] 17.9 µM | [6] 10.6 µM | [7] 15 µM | [9] 20 µM | [16] 8.51 µM | [10] 7.21 µM | [17] > 10 µM | [11] 17.3 µM | [12] 5.25 µM | [13] 15.8 µM | [14] 11 µM

N#C/C(=C\c1ccc(O)c(O)c1)C(N)=S [TYRPHOSTIN 47]
inactive: [15] > 100 µM | [1] 64 µM | [3] 71.1 µM | [4] 72.8 µM | [5] > 100 µM | [6] > 100 µM | [7] > 70.5 µM | [8] 50.2 µM | [9] 82.8 µM | [16] > 100 µM | [10] > 54.7 µM | [17] > 100 µM | [11] > 100 µM | [12] 79.1 µM | [13] > 73.5 µM | [14] > 94.4 µM

O=C(CSc1nnc(-c2ccc(/N=C\c3ccc(Cl)cc3)cc2)o1)Nc1ccccc1Cl
inactive: [15] > 100 µM | [1] > 100 µM | [2] > 100 µM | [3] > 100 µM | [4] > 100 µM | [6] > 10 µM | [7] > 100 µM | [8] > 100 µM | [9] > 100 µM | [16] > 100 µM | [10] 20.7 µM | [11] > 100 µM | [12] > 100 µM

COc1cccc2c1OC1Sc3ccccc3-c3nn(-c4ccccc4)c-2c31 (stereo not given)
inactive: [15] > 100 µM | [1] > 100 µM | [2] > 100 µM | [4] > 100 µM | [5] > 100 µM | [7] > 100 µM | [8] > 100 µM | [9] > 100 µM | [16] > 100 µM | [10] > 100 µM | [17] > 100 µM | [12] > 100 µM | [13] > 100 µM | [14] > 100 µM

COC1OC(CBr)C(OC(=O)c2ccccc2)C(O)C1Br (stereo not given)
inactive: [1] > 100 µM | [2] > 100 µM | [3] > 100 µM | [4] > 100 µM | [5] > 100 µM | [6] > 100 µM | [7] > 100 µM | [8] > 100 µM | [9] > 100 µM | [10] > 10 µM | [17] > 100 µM | [11] > 100 µM | [12] > 100 µM | [13] > 100 µM | [14] > 100 µM

CN(C(=N)c1ccccc1)c1ccccc1
inactive: [15] > 100 µM | [1] > 100 µM | [3] > 100 µM | [4] > 100 µM | [6] > 100 µM | [7] > 100 µM | [8] > 100 µM | [9] > 100 µM | [16] > 100 µM | [17] > 10 µM | [11] > 100 µM | [12] > 100 µM | [13] > 100 µM | [14] > 100 µM

COc1cc2c(cc1OC)/C(=C\c1ccccc1N)C(=O)OC2
inactive: [15] 25 µM | [1] 16.1 µM | [2] 3.79 µM | [3] 17.8 µM | [4] 4.65 µM | [5] 20 µM | [6] 13.2 µM | [7] 19.1 µM | [9] 15.1 µM | [16] 12.1 µM | [10] 15.1 µM | [11] 14.9 µM | [12] 4 µM | [13] 23.3 µM | [14] 15.7 µM

O=C(NNC(=O)c1cc(/C=C/c2cccc([N+](=O)[O-])c2)nc(S)n1)Nc1ccc(Cl)cc1
inactive: [15] > 100 µM | [1] 77.4 µM | [2] 34.5 µM | [3] 86.5 µM | [4] 42.3 µM | [5] > 100 µM | [6] > 100 µM | [7] 45.9 µM | [8] 27.2 µM | [9] > 100 µM | [16] > 100 µM | [10] 91 µM | [17] > 100 µM | [13] > 100 µM

NC(=O)NNC/C(Cl)=C(\Cl)C(=O)O
inactive: [15] > 100 µM | [1] > 100 µM | [3] > 100 µM | [4] > 100 µM | [5] > 100 µM | [6] > 100 µM | [7] > 100 µM | [8] > 100 µM | [9] > 100 µM | [16] > 100 µM | [10] > 82.6 µM | [17] > 100 µM | [11] > 100 µM | [12] > 100 µM | [13] > 100 µM | [14] > 100 µM

NCCSSCc1ccccc1CSSCCN
inactive: [15] > 100 µM | [1] > 100 µM | [2] > 100 µM | [3] 57.9 µM | [4] 50 µM | [5] > 100 µM | [6] > 100 µM | [7] > 100 µM | [8] > 100 µM | [9] > 100 µM | [10] > 100 µM | [17] > 100 µM | [11] > 100 µM | [12] 20.4 µM | [13] 50.1 µM | [14] > 100 µM

COC(=O)C1=CC2C(=O)OC1C1C(=O)NC(=O)C21 (stereo not given)
inactive: [1] > 100 µM | [3] > 100 µM | [4] > 100 µM | [6] > 100 µM | [7] > 100 µM | [8] > 100 µM | [9] > 100 µM | [10] > 100 µM | [17] > 100 µM | [11] 60.4 µM | [12] > 100 µM | [13] > 100 µM | [14] > 100 µM

c1ccc(CCCC2Sc3cccc4cccc(c34)S2)cc1
inactive: [15] > 100 µM | [1] > 100 µM | [2] > 100 µM | [3] 78.3 µM | [4] > 100 µM | [5] > 100 µM | [6] > 100 µM | [7] 54.7 µM | [8] > 100 µM | [9] > 100 µM | [16] > 100 µM | [11] > 100 µM | [12] > 100 µM | [13] 88.7 µM | [14] > 100 µM

Cn1c(=O)c2c3oc(=O)cc(O)c3c(=O)n3c4ccccc4n(c1=O)c23
inactive: [15] 57.3 µM | [1] 35.6 µM | [2] 38.8 µM | [3] 28 µM | [4] 34.8 µM | [5] 52.5 µM | [6] 34 µM | [8] 32.8 µM | [9] > 100 µM | [16] 23.4 µM | [10] 26.1 µM | [17] 23.9 µM | [11] 36.5 µM | [12] 40.5 µM | [13] 42.6 µM | [14] 47.6 µM

Nc1ccc2ncc(Nc3ccc(Cl)c(Cl)c3)nc2c1
inactive: [15] 27.2 µM | [1] 18.7 µM | [2] 24.7 µM | [3] 17.5 µM | [4] 29.6 µM | [5] 38.5 µM | [6] 36.4 µM | [7] 31.8 µM | [8] 21.2 µM | [9] 20 µM | [16] 26.4 µM | [10] 19.4 µM | [11] 46 µM | [12] 35.2 µM | [13] 17.6 µM | [14] 17.3 µM

O=C(O)CCSC(=O)Nc1ccccc1Cl
inactive: [15] > 100 µM | [1] > 100 µM | [2] > 100 µM | [3] > 100 µM | [4] > 100 µM | [5] > 100 µM | [6] > 100 µM | [7] > 100 µM | [8] > 100 µM | [9] > 100 µM | [10] > 100 µM | [17] 60 µM | [11] > 100 µM | [12] > 100 µM | [13] > 100 µM | [14] > 100 µM

Brc1ccc(C[N+]23CN4CN(CN(C4)C2)C3)cc1
inactive: [15] > 100 µM | [1] 29.1 µM | [2] 17 µM | [6] 24 µM | [7] 31.1 µM | [8] 28.1 µM | [9] > 100 µM | [10] 30.5 µM | [12] 22.8 µM | [13] 47.1 µM | [14] 40.3 µM

CC1=C(c2cc(C(=O)Nc3nccs3)nc(NC#N)n2)Sc2ccccc2N1
inactive: [15] > 100 µM | [1] > 100 µM | [3] > 100 µM | [4] > 100 µM | [5] > 100 µM | [6] > 100 µM | [7] > 100 µM | [8] > 100 µM | [9] > 100 µM | [16] > 100 µM | [10] > 100 µM | [17] > 100 µM | [11] > 100 µM | [12] > 100 µM | [14] > 100 µM

c1ccc(-c2sc(-c3ccccc3)c3c2C(c2ccccc2)c2c(-c4ccccc4)sc(-c4ccccc4)c2C3c2ccccc2)cc1 (stereo not given)
inactive: [15] > 100 µM | [1] > 100 µM | [2] > 100 µM | [3] > 100 µM | [4] > 100 µM | [5] > 100 µM | [6] > 100 µM | [7] > 100 µM | [8] > 100 µM | [9] > 100 µM | [10] > 100 µM | [17] > 100 µM | [11] > 100 µM | [12] > 100 µM | [13] > 100 µM | [14] > 100 µM
